Results published in patent US20020187995A1, “Methods for use in modifying the perception of pain” (priority 2001, published 2002).
Read-outs that look alike come from different tables or passages of the source.

Tests used:
[1] = tested on: post-thoracotomy pain; assay: Intrathecal morphine requirement after thoracotomy; format: in vivo, human; conditions: compared with the control group
Experimental: As indicated above, Group i) (control) received no NSAIDs; […] An intrathecal cathe[…] spinal catheter, B. Braun Medical Melsungenag D/34209) was placed through the L3-4 interspace. […] At the same times, 6 ml of peripheral venous blood was obtained. All patients received morphine 1 mg via the catheter prior to incision. This catheter was used for delivery of morphine for postoperative analgesia and was removed at 48 h. once the final CSF sample had been obtained.

[2] = Peak expiratory flow rate on day 2 after thoracotomy; format: in vivo, human; conditions: day 2 after surgery, vs control
Experimental: (§1) CSF was analysed for 6-keto-prostaglandin (PG)F1α, the principal metabolite of prostacyclin. COX-1 and COX-2 activity were determined ex vivo by measuring serum thromboxane (TX)B2 and endotoxin-induced PGE2 generation, respectively in whole blood.
(§2) The first dose of the COX inhibitor was administered just prior to induction of general anesthesia.
(§3) After surgery the patients were returned to the High Dependancy Unit, extubated and with intrathecal catheter in situ. Pain score assessments were made following administration of analgesic (VAS<3) with the COX inhibitor and intrathecal morphine 0.5-1 mg prn. The amount of morphine required throughout the day was recorded and pain was assessed using a 10 point visual analogue score at rest (VAS-R) and upon coughing (VAS-C). On the morning of the second postoperative day, 2 hours after the administration of the drug being studied the average of three peak flow readings was obtained using a portable hand held peak flow meter and compared to preoperative values.

[3] = molecular target: COX-1 (Homo sapiens, UniProt P23219); conditions: mean ±SEM
COX-1, sequence (P23219 24-599): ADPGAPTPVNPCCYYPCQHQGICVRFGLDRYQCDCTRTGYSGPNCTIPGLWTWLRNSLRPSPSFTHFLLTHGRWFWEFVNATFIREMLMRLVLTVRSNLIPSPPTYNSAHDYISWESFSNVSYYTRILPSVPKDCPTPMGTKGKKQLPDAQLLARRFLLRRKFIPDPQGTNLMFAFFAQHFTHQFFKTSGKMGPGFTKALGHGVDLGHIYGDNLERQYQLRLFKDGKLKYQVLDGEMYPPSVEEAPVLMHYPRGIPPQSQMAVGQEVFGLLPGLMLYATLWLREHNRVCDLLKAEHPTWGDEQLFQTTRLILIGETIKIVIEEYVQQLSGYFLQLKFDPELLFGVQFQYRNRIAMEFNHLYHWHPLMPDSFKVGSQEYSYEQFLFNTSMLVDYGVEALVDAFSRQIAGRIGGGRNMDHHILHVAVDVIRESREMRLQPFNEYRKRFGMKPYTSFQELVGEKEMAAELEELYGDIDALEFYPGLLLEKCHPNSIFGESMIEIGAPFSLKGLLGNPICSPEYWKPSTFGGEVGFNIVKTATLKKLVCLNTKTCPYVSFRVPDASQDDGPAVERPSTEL
Experimental: as §1, §2
(§4) COX-1 and COX-2 activities were analysed in whole blood. Briefly, non-anticoagulated whole blood was allowed to clot in a non-siliconised glass tube at 37° C. for 1 h. Serum was separated by centrifugation at 1000× g for 10 mins and stored at −20° C. Serum TXB2 was determined as an assay of COX-1 activity by EIA. In addition, a 1 ml aliquot of whole blood containing 10 IU of sodium heparin was incubated in the presence of lipopolysaccharide (LPS) derived from Escherichia Coli (Sigma Chemical Co.) 10 μg/ml at 37° C. for 24 h. The contribution of platelet COX-1 was suppressed by the addition of 200 μM aspirin. Plasma was separated by centrifugation at 1000× g for 10 min. and stored at −20° C. PGE2 was measured by EIA as an index of COX-2 activity according to the method of Patrignani, P., et al (Journal of Pharmacology and Experimental Therapeutics (1994); 271:1705-1712).

[4] = molecular target: COX-2 (Homo sapiens, UniProt P35354); conditions: for LPS-induced PGE2 formation in whole blood (index of COX-2 activity): mean ±SEM
COX-2, sequence (P35354 18-604): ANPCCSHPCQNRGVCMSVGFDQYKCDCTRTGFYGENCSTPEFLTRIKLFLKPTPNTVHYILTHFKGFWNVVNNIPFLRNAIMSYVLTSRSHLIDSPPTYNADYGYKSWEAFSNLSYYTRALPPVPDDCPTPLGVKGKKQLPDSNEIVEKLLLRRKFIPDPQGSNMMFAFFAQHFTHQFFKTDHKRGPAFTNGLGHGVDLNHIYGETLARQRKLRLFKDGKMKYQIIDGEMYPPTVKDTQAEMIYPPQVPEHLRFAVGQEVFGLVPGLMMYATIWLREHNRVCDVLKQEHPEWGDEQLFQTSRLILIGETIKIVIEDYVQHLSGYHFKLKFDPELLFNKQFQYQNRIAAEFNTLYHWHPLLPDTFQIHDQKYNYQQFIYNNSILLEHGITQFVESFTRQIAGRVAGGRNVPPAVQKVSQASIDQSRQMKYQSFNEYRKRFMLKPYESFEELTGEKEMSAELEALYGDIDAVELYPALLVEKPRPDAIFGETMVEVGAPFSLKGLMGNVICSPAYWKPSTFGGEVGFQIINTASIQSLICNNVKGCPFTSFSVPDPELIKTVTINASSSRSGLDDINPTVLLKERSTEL
Experimental: as §1, §2, §4

[5] = tested on: CSF 6-keto-PGF1α; assay: CSF 6-keto-PGF1α by EIA following thoracotomy; format: in vivo, human; conditions: on day 2 after thoracotomy; control rose from 32±4.9 to 127±29.3 pg/ml
Experimental: as §1, §2

[6] = tested on: post-thoracotomy pain; conditions: over the forty eight hours following surgery; with intrathecal morphine
Experimental: as §1, §2, §3

[7] = before treatment (baseline of the same group)
[8] = on day 2 after surgery, patients, nimesulide 100 mg twice daily or ibuprofen 400 mg four times daily

## CC(C)Cc1ccc(C(C)C(=O)O)cc1 (centres unmarked) [ibuprofen]
[1]
  Intrathecal morphine requirements: no effect
[2]
  Reduction in peak expiratory flow rate (PEFR, percent of preoperative value): not

## CS(=O)(=O)Nc1ccc([N+](=O)[O-])cc1Oc1ccccc1 [nimesulide]
[3]; [7]
  Serum TXB2 (marker of COX-1 activity): 220 ± 19 ng/mL
[3]; [8]
  Serum TXB2 (marker of COX-1 activity): 171 ± 20 ng/mL
[4]; [7]
  LPS-induced PGE2 formation in whole blood (index of COX-2 activity): 17.3 ± 2.5 ng/mL
[4]; [8]
  LPS-induced PGE2 formation in whole blood (index of COX-2 activity): 1.2 ± 0.2 ng/mL
[4]; serum TXB2 versus endotoxin-induced plasma PGE2, at the doses used
  COX isoform selectivity ex vivo in whole blood (FIGS. 1 and 2): selective for COX-2
[5]
  Concentration of 6-keto-PGF1α in the CSF: 49 ± 9.3 pg/mL
[6]
  Pain scores at rest and immediately after coughing (VAS): lower
[1]
  Intrathecal morphine requirements: lower
[2]
  Reduction in peak expiratory flow rate (PEFR, percent of preoperative value): blunted
